Source: PMC1298333, “Biochemical characterization of the Arctic char (Salvelinus alpinus) ovarian progestin membrane receptor” (Reproductive biology and endocrinology : RB&E, 2005)

The molecules below were run against T1, 17,20beta-P membrane receptor (ovarian membrane progestin receptor, mPR) (assay: competition with [3H]-17, […]β-P, filtration assay). Details: 7 nM [3H]-17,20β-P, ovarian membranes, pH 7.4, +4°C, 30 min; read-out: Concentration (nM) causing 50% displacement.
T1 construct: gene paqr7; native receptor in crude ovarian plasma membrane fraction (20,000 g pellet)
Format: binding, Salvelinus alpinus
For `C[C@]12CCC(=O)C=C1CC[C@@H]1[C@@H]2CC[C@@]2(C)[C@H]1CC[C@]2(O)C(=O)CO` [DC, 11-deoxycortisol], the IC50 was 207 nM.
`CC(C)C(=O)Nc1ccc([N+](=O)[O-])c(C(F)(F)F)c1` [Flutamide] gave an IC50 of 256 nM.
For `Clc1ccc(C(c2ccccc2Cl)C(Cl)Cl)cc1` (stereo not drawn) [o,p'-DDD], the IC50 was 549 nM.
Work on `CN(C)c1ccc([C@H]2C[C@]3(C)[C@@H](CC[C@]3(O)CCCO)[C@@H]3CCC4=CC(=O)CCC4=C32)cc1` [ZK 98299] yielded an IC50 of 12900 nM.
Work on `Clc1ccc(C(c2ccccc2Cl)C(Cl)(Cl)Cl)cc1` (stereo not drawn) [o,p'-DDT] yielded an IC50 of 378 nM.
`C[C@]12CC[C@H]3[C@@H](CCC4=CC(=O)CC[C@@]43C)[C@@H]1CC[C@@H]2C(=O)CO` [11-DOC, 11-deoxycorticosterone] was tested, and the IC50 was 132 nM.
`C[C@]12CCC(=O)C=C1CC[C@@H]1[C@@H]2CC[C@@]2(C)[C@H]1CC[C@]2(O)[C@H](O)CO` [20β-S, 17, 20β, 21-trihydroxy-4-pregnen-3-one] was tested, and the IC50 was 145 nM.
`CC(=O)[C@@]1(O)CC[C@H]2[C@@H]3CCC4=CC(=O)CC[C@]4(C)[C@H]3CC[C@@]21C` [17α-OH-P, 17α-hydroxyprogesterone] showed an IC50 of 69.3 nM.
`CC(=O)[C@H]1CC[C@H]2[C@@H]3CCC4=CC(=O)CC[C@]4(C)[C@H]3CC[C@]12C` [P4, progesterone] gave an IC50 of 52.6 nM.
ZK 112992 showed an IC50 of 1180 nM.
`C[C@@H](O)[C@@]1(O)CC[C@H]2[C@@H]3CCC4=CC(=O)CC[C@]4(C)[C@H]3CC[C@@]21C` [17,20β-P, 17,20beta-dihydroxy-4-pregnen-3-one] was tested, and the IC50 was 1.25 nM.
`C[C@]12CCC(=O)C=C1CC[C@@H]1[C@@H]2[C@@H](O)C[C@@]2(C)[C@H]1CC[C@]2(O)C(=O)CO` [F, cortisol] showed an IC50 of 14400 nM.
For `C[C@]12CC[C@H]3[C@@H](CCC4=CC(=O)CC[C@@]43C)[C@@H]1CC[C@@H]2O` [T, testosterone], the IC50 was 18300 nM.
Work on `C[C@]12CC[C@@H]3c4ccc(O)cc4CC[C@H]3[C@@H]1CC[C@@H]2O` [E2, 17β-estradiol] yielded an IC50 of 37.9 nM.

What follows are molecules tested against T1, 17,20beta-P membrane receptor (ovarian membrane progestin receptor, mPR) (assay: radioligand saturation, filtration assay, Scatchard). Details: labelled compound ([3H]-17,20β-P); ovarian membranes, pH 7.4, +4°C, 30 min.
Format: binding, Salvelinus alpinus
With `C[C@@H](O)[C@@]1(O)CC[C@H]2[C@@H]3CCC4=CC(=O)CC[C@]4(C)[C@H]3CC[C@@]21C` [17,20β-P, 17,20beta-dihydroxy-4-pregnen-3-one] the Kd was 13.8 ± 1.1 nM.
